Laboratory results as given in US20230071840A1, “HETEROCYCLIC GLP-1 AGONISTS” (Gasherbrum Bio, Inc., priority 2020, published 2023).
pEC50: −log10 of the molar value.

biological target: GLP-1 Receptor (Homo sapiens, UniProt P43220); test: GLP-1R agonist cAMP stimulation assay (HEK293/GLP1R/CRE-LUC cells, cAMP dynamic 2 kit); assay type: cell-based; details: HEK293/CRE-Luc cell line stably expressing the GLP-1 Receptor; 30 min incubation at 37° C.; read-out: GLP1R cAMP Stimulation DR: EC50
In short: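 HEK293/CRE-Luc cells stably expressing human GLP-1R stimulated 30 min at 37 °C, 5% CO2. cAMP detected with HTRF cAMP-d2/anti-cAMP cryptate reagents after 1 h at room temperature; % activity normalised between vehicle and maximal control.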

Chain of GLP-1 Receptor (P43220 24-463, species assumed): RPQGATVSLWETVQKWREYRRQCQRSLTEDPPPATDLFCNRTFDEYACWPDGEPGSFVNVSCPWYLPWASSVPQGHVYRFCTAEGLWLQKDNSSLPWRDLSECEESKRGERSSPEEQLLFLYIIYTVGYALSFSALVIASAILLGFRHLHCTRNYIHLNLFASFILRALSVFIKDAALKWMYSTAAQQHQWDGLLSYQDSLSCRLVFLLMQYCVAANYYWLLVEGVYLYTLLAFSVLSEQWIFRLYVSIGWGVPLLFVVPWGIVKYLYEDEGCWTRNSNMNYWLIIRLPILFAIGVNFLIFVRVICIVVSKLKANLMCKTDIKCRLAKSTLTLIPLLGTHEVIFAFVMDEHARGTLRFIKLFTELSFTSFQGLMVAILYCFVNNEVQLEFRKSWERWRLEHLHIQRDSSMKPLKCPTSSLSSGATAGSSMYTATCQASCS

| Compound | pEC50 |
| --- | --- |
| O=C(O)c1ccc2nc(CN3CCC(Oc4ccnc(Cc5ccc(Cl)cc5)n4)CC3)n(Cc3cn[nH]c3)c2n1 [Compound 193, 3-((1H-pyrazol-4-yl)methyl)-2-((4-((2-(4-chlorobenzyl)pyrimidin-4-yl)oxy)piperidin-1-yl)methyl)-3H-imidazo[4,5-b]pyridine-5-carboxylic acid] | 9.72 |
| O=C(O)c1ccc2nc(C[C@H]3CC[C@H](Oc4ccnc(Cc5ccc(Cl)cc5)n4)CC3)n(C[C@@H]3CCO3)c2n1 [Compound 177a, 3-{[(2S)-oxetan-2-yl]methyl}-2-{[trans-4-({2-[(4-chlorophenyl)methyl]pyrimidin-4-yl}oxy)cyclohexyl]methyl}-3H-imidazo[4,5-b]pyridine-5-carboxylic acid] | 10.38 |
| CCOCCn1c(CN2CCC(Oc3ccnc(Cc4ccc(Cl)cc4)n3)CC2)nc2ccc(C(=O)O)nc21 [Compound 194, 2-((4-((2-(4-chlorobenzyl)pyrimidin-4-yl)oxy)piperidin-1-yl)methyl)-3-(2-ethoxyethyl)-3H-imidazo[4,5-b]pyridine-5-carboxylic acid] | 8.54 |
| O=C(O)c1ccc2nc(CN3CCC(c4cccc5cn(Cc6ccc(Cl)cc6F)nc45)CC3)n(C[C@@H]3CCO3)c2n1 [Compound 142a, (S)-2-((4-(2-(4-chloro-2-fluorobenzyl)-2H-indazol-7-yl)piperidin-1-yl)methyl)-3-(oxetan-2-ylmethyl)-3H-imidazo[4,5-b]pyridine-5-carboxylic acid] | 8.77 |
| O=C(O)c1ccc2nc(CN3CCC(c4cccc5nc(Cc6ccc(Cl)cc6F)oc45)CC3)n(C[C@@H]3CCO3)c2n1 [Compound 143a, (S)-2-((4-(2-(4-chloro-2-fluorobenzyl)benzo[d]oxazol-7-yl)piperidin-1-yl)methyl)-3-(oxetan-2-ylmethyl)-3H-imidazo[4,5-b]pyridine-5-carboxylic acid] | 9.28 |
| O=C(O)c1ccc2nc(Cc3ccc(Oc4nc(Cc5ccc(Cl)cc5)ncc4F)cc3)n(C[C@@H]3CCO3)c2n1 [Compound 189a, 2-{[4-({2-[(4-chlorophenyl)methyl]-5-fluoropyrimidin-4-yl}oxy)phenyl]methyl}-3-{[(2S)-oxetan-2-yl]methyl}-3H-imidazo[4,5-b]pyridine-5-carboxylic acid] | 9.16 |
| N#Cc1ccc(Cc2cccc(OC3CCN(Cc4nc5ccc(C(=O)O)nc5n4C[C@@H]4CCO4)CC3)n2)c(F)c1 [Compound 136a, 2-{[4-({6-[(4-cyano-2-fluorophenyl)methyl]pyridin-2-yl}oxy)piperidin-1-yl]methyl}-3-{[(2S)-oxetan-2-yl]methyl}-3H-imidazo[4,5-b]pyridine-5-carboxylic acid] | 9.36 |
| N#CC1(Cn2c(CN3CCC(Oc4ccnc(Cc5ccc(Cl)cc5F)n4)CC3)nc3ccc(C(=O)O)cc32)CC1 [Compound 162, 2-{[4-({2-[(4-chloro-2-fluorophenyl)methyl]pyrimidin-4-yl}oxy)piperidin-1-yl]methyl}-1-[(1-cyanocyclopropyl)methyl]-1H-1,3-benzodiazole-6-carboxylic acid] | 10.12 |
| O=C(O)c1ccc2nc(CN3CCC(Oc4ccnc(Cc5ccc(Cl)cc5F)n4)CC3)n(C[C@@H]3CCO3)c2c1 [Compound 160a, 2-{[4-({2-[(4-chloro-2-fluorophenyl)methyl]pyrimidin-4-yl}oxy)piperidin-1-yl]methyl}-1-{[(2S)-oxetan-2-yl]methyl}-1H-1,3-benzodiazole-6-carboxylic acid] | 9.92 |
| O=C(O)c1ccc2nc(CN3CCC(C(F)(F)c4cccc(Cc5ccc(Cl)cc5F)n4)CC3)n(C[C@@H]3CCO3)c2n1 [Compound 173a, 2-{[4-({6-[(4-chloro-2-fluorophenyl)methyl]pyridin-2-yl}difluoromethyl)piperidin-1-yl]methyl}-3-{[(2S)-oxetan-2-yl]methyl}-3H-imidazo[4,5-b]pyridine-5-carboxylic acid] | 8.42 |
| O=C(O)c1ccc2nc(C[C@H]3CC[C@H](Oc4cccc(Cc5ccc(Cl)cc5)n4)CC3)n(C[C@@H]3CCO3)c2n1 [Compound 181a, 3-{[(2S)-oxetan-2-yl]methyl}-2-{[trans-4-({6-[(4-chlorophenyl)methyl]pyridin-2-yl}oxy)cyclohexyl]methyl}-3H-imidazo[4,5-b]pyridine-5-carboxylic acid] | 10.08 |
| O=C(O)c1ccc2nc(CN3CCC(Oc4ccnc(Cc5ccc(Cl)cc5C(F)(F)F)n4)CC3)n(C[C@@H]3CCO3)c2n1 [Compound 166a, 2-({4-[(2-{[4-chloro-2-(trifluoromethyl)phenyl]methyl}pyrimidin-4-yl)oxy]piperidin-1-yl}methyl)-3-{[(2S)-oxetan-2-yl]methyl}-3H-imidazo[4,5-b]pyridine-5-carboxylic acid] | 9.00 |
| O=C(O)c1ccc2nc(Cc3ccc(Oc4nc(Cc5ccc(Cl)cc5)ncc4F)cc3F)n(C[C@@H]3CCO3)c2n1 [Compound 190a, 2-{[4-({2-[(4-chlorophenyl)methyl]-5-fluoropyrimidin-4-yl}oxy)-2-fluorophenyl]methyl}-3-{[(2S)-oxetan-2-yl]methyl}-3H-imidazo[4,5-b]pyridine-5-carboxylic acid] | 9.39 |
| O=c1[nH]c(-c2ccc3nc(CN4CCC(Oc5ccnc(Cc6ccc(Cl)cc6)n5)CC4)n(C[C@@H]4CCO4)c3n2)no1 [Compound 198a, (S)-3-(2-((4-((2-(4-chlorobenzyl)pyrimidin-4-yl)oxy)piperidin-1-yl)methyl)-3-(oxetan-2-ylmethyl)-3H-imidazo[4,5-b]pyridin-5-yl)-1,2,4-oxadiazol-5(4H)-one] | 9.15 |
| NC(=O)c1ccc2nc(CN3CCC(Oc4ccnc(Cc5ccc(Cl)cc5)n4)CC3)n(C[C@@H]3CCO3)c2n1 [Compound 200a, (S)-2-((4-((2-(4-chlorobenzyl)pyrimidin-4-yl)oxy)piperidin-1-yl)methyl)-3-(oxetan-2-ylmethyl)-3H-imidazo[4,5-b]pyridine-5-carboxamide] | 7.07 |
